Tests used:
[1] = Compound was evaluated for in vitro inhibition of leukotriene (LTB4) in human peripheral blood polymorphonuclear leukocytes (HPMN); type: functional
[2] = biological target: T1, Polyunsaturated fatty acid 5-lipoxygenase (Homo sapiens, UniProt P09917); assay: Compound was evaluated for in vitro inhibition of recombinant human 5-lipoxygenase (5-LO)
T1 sequence (P09917 whole entry): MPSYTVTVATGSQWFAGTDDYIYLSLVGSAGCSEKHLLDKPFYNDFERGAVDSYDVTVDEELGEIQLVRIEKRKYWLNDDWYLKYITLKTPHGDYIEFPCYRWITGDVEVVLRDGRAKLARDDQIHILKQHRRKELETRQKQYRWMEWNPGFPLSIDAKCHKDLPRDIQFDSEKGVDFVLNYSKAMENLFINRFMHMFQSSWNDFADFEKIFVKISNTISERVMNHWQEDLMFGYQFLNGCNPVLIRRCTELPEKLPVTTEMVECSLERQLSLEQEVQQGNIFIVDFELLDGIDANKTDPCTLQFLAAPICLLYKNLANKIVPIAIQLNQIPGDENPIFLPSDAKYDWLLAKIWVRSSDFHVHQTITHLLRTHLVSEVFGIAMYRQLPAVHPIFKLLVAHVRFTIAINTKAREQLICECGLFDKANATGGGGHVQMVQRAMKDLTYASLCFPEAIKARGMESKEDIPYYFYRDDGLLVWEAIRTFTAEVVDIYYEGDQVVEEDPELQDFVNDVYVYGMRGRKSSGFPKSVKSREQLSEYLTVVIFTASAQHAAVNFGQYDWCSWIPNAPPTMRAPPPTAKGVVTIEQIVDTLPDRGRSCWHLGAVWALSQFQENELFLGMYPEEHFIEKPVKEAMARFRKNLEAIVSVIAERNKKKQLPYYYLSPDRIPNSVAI

Homo sapiens = species: Homo sapiens; assay: Compound was evaluated for in vitro inhibition of leukotriene (LTB4) in human whole blood (HWB); type: functional
Rattus norvegicus = assay: The effect on the biosynthesis of leukotriene B4 in vivo was evaluated in the rat pleural cavity using a carrageenan-induced model of inflammation after oral administration at 6 hr; type: functional

Compound	IC50 [1] [nM]	IC50 [2] [nM]	IC50 (Homo sapiens) [nM]	ED50 (Rattus norvegicus) [mg/kg]
N#Cc1cc(-c2ccoc2)c2ccc(OCc3cccc(C4(O)CC5COC(C4)O5)c3)cc2n1 (stereo not given)	10	> 3000	287	–
OC1(c2cccc(COc3ccc4c(-c5ccoc5)cncc4c3)n2)CC2COC(C1)O2 (stereo not given)	10.3	1460	90	–
N#Cc1cc(-c2ccoc2)c2ccc(COc3cc(F)cc(C4(O)CC5COC(C4)O5)c3)cc2n1 (stereo not given)	–	–	–	< 0.1
N#Cc1cc2cc(OCc3cccc(C4(O)CC5COC(C4)O5)n3)ccc2c(-c2ccoc2)n1 (stereo not given)	18	1960	47	–

Second part, led by results:

IC50 [1] [nM]	IC50 [2] [nM]	IC50 (Homo sapiens) [nM]	Compound	ED50 (Rattus norvegicus) [mg/kg]
4	36	103	N#Cc1cc(-c2ccoc2)c2ccc(OCc3cccc(C4(O)CC5COC(C4)O5)n3)cc2n1 (stereo not given)	–
5.8	102	160	O=c1cc(-c2ccoc2)c2ccc(OCc3cccc(C4(O)CC5COC(C4)O5)n3)cc2n1Cc1ccccc1 (stereo not given)	–
1.6	–	–	N#Cc1cc(-c2ccoc2)c2ccc(OCc3cccc(C4(O)CC5COC(C4)O5)n3)cc2c1 (stereo not given)	–
6	124	193	N#Cc1cc(-c2ccoc2)c2ccc(CSc3cc(F)cc(C4(O)CC5COC(C4)O5)c3)cc2n1 (stereo not given)	–

— ChEMBL document CHEMBL1131285, “Quinolines as potent 5-lipoxygenase inhibitors: synthesis and biological profile of L-746,530” (Bioorg Med Chem Lett, 1998)
